Data on twelve molecules can be found in patent publication US20260232827A1, “ANTIBODY-DRUG CONJUGATES TARGETING NAPI2B AND METHODS OF USE” (Zymeworks BC Inc., priority 2023, published 2026).

The test system of one test is Calu-3 (lung cancer). The experiment in a line: In vitro cytotoxicity of camptothecin analogues (CellTiter-Glo). Type of test: cell-based. The conditions noted are these: Homo sapiens, Calu-3, 96 h, read-out: pIC50 Calu-3 (converted). The protocol:
(§1) Cytotoxicity of the camptothecin analogues was assessed in vitro as follows.
(§2) In vitro potency was assessed on multiple cancer cell lines: SK-BR-3 (breast cancer), SKOV-3 (ovarian cancer), Calu-3 (lung cancer), ZR-75-1 (breast cancer) and MDA-MB-468 (breast cancer). Serial dilutions of camptothecin analogues were prepared in RPMI 1640+10% FBS, and 20 μL of each dilution was added to 384-well plates. Cells cultured in log-phase growth were detached by brief incubation in 0.05% Trypsin and resuspended in respective culturing media at 20,000 cells/mL (with the exception of ZR-75 cells, which were resuspended at 10,000 cells/mL). 50 μL of cell suspension was then added to the plates containing test articles. Cells were incubated with test articles for 4 d at 37° C. (with the exception of ZR-75 cells, which were incubated for 5 d). Growth inhibition was assessed by CellTiter-Glo® (Promega Corporation, Madison, WI) and luminescence was measured on a plate reader. IC50 values were determined by GraphPad Prism (GraphPad Software, San Diego CA).

For test [1], the system named is MDA-MB-468 (breast cancer). The description is as above. Type of test: cell-based. The conditions noted are these: Homo sapiens, MDA-MB-468, 96 h, read-out: pIC50 MDA-MB-468 (converted). On the procedure:
as §1, §2

The next test has as its system SK-BR-3 (breast cancer). The test is described as above. The conditions noted are these: Homo sapiens, SK-BR-3, 96 h, read-out: pIC50 SKBR-3 (converted). Type of test: cell-based. On the procedure: as §1, §2
A further test concerns SKOV-3 (ovarian cancer). The test is described as above. The conditions noted are these: Homo sapiens, SK-OV-3, 96 h, read-out: pIC50 SKOV-3 (converted). Type of test: cell-based. The protocol: as §1, §2
A further test relates to ZR-75-1 (breast cancer). Described as above. Type of test: cell-based. Particulars: Homo sapiens, ZR-75-1, 120 h, read-out: pIC50 ZR-75 (converted). The protocol: as §1, §2
In test [2] the test system is Construct 1 (chimeric human NaPi2b, region 239-259). The experiment in a line: Binding region mapping, flow cytometry on transfected HEK293-6e cells. Particulars: 24 hours at 4° C. The text has this: (§3) NaPi2b constructs containing deletions in the main extracellular loop of human NaPi2b, as well as chimeric NaPi2b/NaPi2c constructs concerning this main loop, were generated.
(§4) As a complementary strategy, two additional constructs were designed in which the relevant region of the main loop was deleted such as to mimic NaPi2c/NaPi2a main extracellular loop (Constructs 6-7 in Table 52.1). Clones were generated at GenScript Biotech (Piscataway, NJ).
(§5) Constructs were expressed in HEK293-6e cells as follows. Cells were maintained under standard culture conditions (37° C./5% CO2) with shaking at 110 rpm for suspension and cultured in FreeStyle™ 293 Expression Medium (Thermo Fisher Scientific, Waltham, MA) supplemented with 1% fetal bovine serum (Thermo Fisher Scientific, Waltham, MA) and 1× Penicillin-Streptomycin (Thermo Fisher Scientific, Waltham, MA). Cells were transfected with clones expressing the constructs listed in Table 52.1, at 1 μg of DNA per 1 million cells, using 293Fectin™ Transfection Reagent (Thermo Fisher Scientific, Waltham, MA) and Opti-MEM™ I Reduced Serum Medium (Thermo Fisher Scientific, Waltham, MA), and incubated for 24 hours under standard culture conditions (37° C./5% CO2/110 rpm). Following transfection, cells were seeded at 50,000 cells/well in conical-bottom 96-well plates and treated with a serial dilution of test antibody for 24 hours at 4° C. to prevent internalization. Cells were treated with final concentrations of all humanized antibodies of 200, 20, or 2 nM. Cells were treated with final concentrations of the reference anti-NaPi2a rabbit antibody of 50, 5, or 0.5 nM. […] Following incubation and washing, fluorescence was detected by flow cytometry on a BD LSRFortessa™ Cell Analyzer (BD Biosciences, Franklin Lake, NJ) with 1,000 minimum events collected per well. […] Background-subtracted AF647 Mean Fluorescence Intensity (MFI) values were calculated by subtracting the average MFI of three technical replicates of unstained (no primary antibody) cells.

For test [3], the system named is Construct 2 (chimeric human NaPi2b, region 280-301). The test is described as above. The conditions noted are these: 24 hours at 4° C.
Excerpt: as §3, §4, §5

Take `CC[C@@]1(O)C(=O)OCc2c1cc1n(c2=O)Cc2c-1nc1cc(F)c(C)cc1c2CN1CCN(c2ccc(N)cc2)CC1` [Compound 108, (S)-11-((4-(4-aminophenyl)piperazin-1-yl)methyl)-4-ethyl-8-fluoro-4-hydroxy-9-methyl-1,12-dihydro-14H-pyrano[3′,4′:6,7]indolizino[1,2-b]quinoline-3,14(4H)-dione]: the IC50 is 40.7 nM with Calu-3 (lung cancer); 47.9 nM in test [1]; 29.5 nM in the test on SK-BR-3 (breast cancer); 55 nM in the test with SKOV-3 (ovarian cancer); 18.6 nM in the test with ZR-75-1 (breast cancer).
For `CC[C@@]1(O)C(=O)OCc2c1cc1n(c2=O)Cc2c-1nc1cc(F)c(C)cc1c2CN1CCO[C@@H](CO)C1` [Compound 113, (S)-4-ethyl-8-fluoro-4-hydroxy-11-(((R)-2-(hydroxymethyl)morpholino)methyl)-9-methyl-1,12-dihydro-14H-pyrano[3′,4′:6,7]indolizino[1,2-b]quinoline-3,14(4H)-dione] the same measures were 3.02 nM, 3.39 nM, 1.95 nM, 4.27 nM and 2.19 nM.
As for `CC[C@@]1(O)C(=O)OCc2c1cc1n(c2=O)Cc2c-1nc1cc(F)c(C)cc1c2CN1CCSCC1CO` (stereo partly drawn) [Compound 114, (4S)-4-ethyl-8-fluoro-4-hydroxy-11-((3-(hydroxymethyl)thiomorpholino)methyl)-9-methyl-1,12-dihydro-14H-pyrano[3′,4′:6,7]indolizino[1,2-b]quinoline-3,14(4H)-dione], the IC50 with Calu-3 (lung cancer) is 0.0933 nM; in test [1] it was 0.417 nM; with SK-BR-3 (breast cancer), 0.107 nM; in the test with SKOV-3 (ovarian cancer) it was 0.178 nM.
On to `CC[C@@]1(O)C(=O)OCc2c1cc1n(c2=O)Cc2c-1nc1cc(F)c(C)cc1c2CN1C2CCC1(CO)CC2` [Compound 121], for which the IC50 with Calu-3 (lung cancer) was 0.145 nM; in test [1], 0.269 nM; in the test on SK-BR-3 (breast cancer), 0.148 nM; with SKOV-3 (ovarian cancer), 0.195 nM.
As for `CC[C@@]1(O)C(=O)OCc2c1cc1n(c2=O)Cc2c-1nc1cc(F)c(C)cc1c2CNS(C)(=O)=O` [Compound 122, (S)-N-((4-ethyl-8-fluoro-4-hydroxy-9-methyl-3,14-dioxo-3,4,12,14-tetrahydro-1H-pyrano[3′,4′:6,7]indolizino[1,2-b]quinolin-11-yl)methyl)methanesulfonamide], the IC50 is 3.72 nM with Calu-3 (lung cancer); 1.1 nM in test [1]; 1.12 nM with SK-BR-3 (breast cancer); 9.12 nM with SKOV-3 (ovarian cancer); 1.29 nM with ZR-75-1 (breast cancer).
As for `CC[C@@]1(O)C(=O)OCc2c1cc1n(c2=O)Cc2c-1nc1cc(F)c(C)cc1c2CNS(=O)(=O)c1ccccc1` [Compound 125, (S)-N-((4-ethyl-8-fluoro-4-hydroxy-9-methyl-3,14-dioxo-3,4,12,14-tetrahydro-1H-pyrano[3′,4′:6,7]indolizino[1,2-b]quinolin-11-yl)methyl)benzenesulfonamide], the IC50 is 2.82 nM with Calu-3 (lung cancer); 3.8 nM in test [1]; 1.32 nM in the test on SK-BR-3 (breast cancer); 7.08 nM in the test on SKOV-3 (ovarian cancer); 1.32 nM in the test on ZR-75-1 (breast cancer).
With `CC[C@@]1(O)C(=O)OCc2c1cc1n(c2=O)Cc2c-1nc1cc(F)c(C)cc1c2CNS(=O)(=O)c1ccc(N)cc1` [Compound 127, (S)-4-amino-N-((4-ethyl-8-fluoro-4-hydroxy-9-methyl-3,14-dioxo-3,4,12,14-tetrahydro-1H-pyrano[3′,4′:6,7]indolizino[1,2-b]quinolin-11-yl)methyl)benzenesulfonamide], the IC50 in the test on Calu-3 (lung cancer) is 9.33 nM; in test [1], 3.8 nM; in the test on SK-BR-3 (breast cancer), 3.31 nM; in the test with SKOV-3 (ovarian cancer) it was 14.5 nM; in the test with ZR-75-1 (breast cancer), 5.25 nM.
For `CC[C@@]1(O)C(=O)OCc2c1cc1n(c2=O)Cc2c-1nc1cc(F)c(OC)cc1c2CNS(=O)(=O)c1ccc(N)cc1` [Compound 128, (S)-4-amino-N-((4-ethyl-8-fluoro-4-hydroxy-9-methoxy-3,14-dioxo-3,4,12,14-tetrahydro-1H-pyrano[3′,4′:6,7]indolizino[1,2-b]quinolin-11-yl)methyl)benzenesulfonamide], the IC50 in test [1] is 8.32 nM; with SK-BR-3 (breast cancer), 5.25 nM; with SKOV-3 (ovarian cancer), 18.2 nM; with ZR-75-1 (breast cancer) it was 4.27 nM.
As to `CC[C@@]1(O)C(=O)OCc2c1cc1n(c2=O)Cc2c-1nc1cc(F)c(C)cc1c2CNS(N)(=O)=O` [Compound 131, (S)-((4-ethyl-8-fluoro-4-hydroxy-9-methyl-3,14-dioxo-3,4,12,14-tetrahydro-1H-pyrano[3′,4′:6,7]indolizino[1,2-b]quinolin-11-yl)methyl)sulfamide], the IC50 was 9.12 nM in the test on Calu-3 (lung cancer), 9.12 nM in test [1], 1.05 nM with SK-BR-3 (breast cancer) and 0.955 nM in the test with ZR-75-1 (breast cancer).
In the case of `CC[C@@]1(O)C(=O)OCc2c1cc1n(c2=O)Cc2c-1nc1cc(F)c(OC)cc1c2CNC(=O)NCc1ccc(N)cc1` [Compound 135, (S)-1-(4-aminobenzyl)-3-((4-ethyl-8-fluoro-4-hydroxy-9-methoxy-3,14-dioxo-3,4,12,14-tetrahydro-1/- pyrano[3′,4′:6,7]indolizino[1,2-b]quinolin-11-yl)methyl)urea], the IC50 is 10.7 nM in test [1], 12.3 nM in the test on SK-BR-3 (breast cancer) and 13.2 nM in the test on ZR-75-1 (breast cancer).
Consider `CC[C@@]1(O)C(=O)OCc2c1cc1n(c2=O)Cc2c-1nc1cc(F)c(N)cc1c2CN=[N+]=[N-]` [Compound 152, (S)-9-amino-11-(azidomethyl)-4-ethyl-8-fluoro-4-hydroxy-1,12-dihydro-14H-pyrano[3′,4′:6,7]indolizino[1,2-b]quinoline-3,14(4H)-dione], for which the IC50 in the test on Calu-3 (lung cancer) is 1.48 nM; in test [1], 5.01 nM; in the test with SK-BR-3 (breast cancer), 3.24 nM; in the test with SKOV-3 (ovarian cancer), 2.88 nM.
With MX35 [MX35 (v18992)], the “Background-Subtracted AF647 Mean Fluorescence Intensity” value is listed as 1,893 in test [2] (antibody 2.0 nM); 1,816 in test [2] (antibody 20.0 nM); 1,718 in test [2] (antibody 200.0 nM); 1,246 in test [3] (antibody 20.0 nM); 1,356 in test [3] (antibody 200.0 nM).
